Test results taken from PMC10816276 (International Journal of Molecular Sciences, 2024).
Where “and” joins values, the source holds several entries; their conditions need not be identical. Identical values can stand only once. Entries after “also recorded” stand apart in the source; their conditions may differ.

Assays:
[1] = target: T1, Mushroom tyrosinase (mTyr) (Agaricus bisporus, UniProt C7FF04); test: mTyr inhibition kinetics (Lineweaver-Burk); format: biochemical
T1 construct: purchased Sigma-Aldrich
Procedure: The mTyr inhibition kinetics of 6′-O-caffeoylarbutin were studied using a method similar to the previously reported procedure for determining the inhibitory activity of 6′-O-caffeoylarbutin on mTyr.
I. Enzyme inhibition mechanism study. For the investigation of the enzyme inhibition mechanism, L-DOPA was used at a final concentration of 0.5 mmol·L^−1, and the mTyr was set at final concentrations of 8.1, 32.5, and 65.0 U·mL^−1. The rate of change of optical density (OD) at 490 nm was measured for various concentrations of 6′-O-caffeoylarbutin (ranging from 10 to 100 μM). A graph was plotted to depict the relationship between the rate of change of OD values and the mTyr concentration under the influence of different concentrations of 6′-O-caffeoylarbutin.
II. Enzyme inhibition type study. To determine the enzyme inhibition type, L-DOPA was used with final concentrations of 0.2, 0.5, 0.6, and 0.8 mmol·L^−1, while mTyr was used at a final concentration of 31.25 U·mL^−1. The rate of change of OD at 490 nm was measured for various concentrations of 6′-O-caffeoylarbutin (ranging from 0 to 100 μM). A reciprocal plot was generated using the rate of change of OD values and L-DOPA concentration. The inhibition constants were obtained based on the inhibition type of 6′-O-caffeoylarbutin on mTyr using quadratic plotting of the 6′-O-caffeoylarbutin concentration and the slope and vertical intercept of the line in the Lineweaver_Burk double reciprocal plot and Dixon plot.

[2] = target: T1, Mushroom tyrosinase (mTyr); test: Fluorescence quenching of mTyr; format: binding
Excerpt: Fluorescence quenching can be classified into static quenching and dynamic quenching. Static quenching occurs when quenching agents bind to fluorescent substances, forming complexes that result in quenching. Dynamic quenching, on the other hand, primarily arises from thermal motion and molecular collisions. The plot of F0/F against the concentration of 6′-O-caffeoylarbutin yielded a straight line with a good linear relationship (R^2 = 0.9802). […] Typically, the threshold value for the maximum collisional quenching rate constant between small molecular quenchers and large biomolecules is 2.0 × 10^10 L·(mol·s)^−1. If the calculated quenching rate constant is below this threshold, it indicates a dynamic quenching mechanism. Conversely, if the quenching rate constant exceeds this threshold, the quenching process may involve static quenching.
In the static quenching process, the relationship between fluorescence intensity and quencher concentration can be described by Equation (1). lg[(F0 − F)/F] = lgKa + nlg[Q](1) where F0 and F represent relative fluorescence intensities of the solution without and with the quencher, respectively. Ka represents the apparent binding constant between the enzyme and the quencher, n represents the number of binding sites on each biomacromolecule for the quencher, and [Q] denotes the concentration of the quencher. In this study, a double-logarithmic linear regression analysis of lg[(F0 − F)/F] against lg[Q] was conducted to evaluate the interaction between 6′-O-caffeoylarbutin and mTyr. Figure S5C illustrates the resulting regression line, which provided a slope and intercept for the calculation of Ka and n. The obtained values were determined as (10.79 ± 0.82) × 10^4 L∙mol^−1 and 0.79 ± 0.06, respectively. These findings indicate the formation of a stable complex between 6′-O-caffeoylarbutin and mTyr, involving a single binding site.
The fluorescence quenching role of 6′-O-caffeoylarbutin on mTyr was investigated using a RF-6000 fluorescence spectrophotometer (Shimadzu, Kyoto, Japan) with a xenon flash lamp as a light source, according to the literature with minor alterations. The excitation wavelength was 280 nm, with a scanning wavelength ranging from 290 to 500 nm at 37 °C. The excitation and emission bandwidths were 2.5 nm and 5.0 nm, respectively. A 3 mL mixture containing 2.0 mL of 31.25 U·mL^−1 mTyr solution, 0.5 mL of 6′-O-caffeoylarbutin solution (with 3% dimethyl sulfoxide) at concentrations from 0 to 100 μM, and 0.5 mL of PBS was used to collect the fluorescence intensity curves. The PBS served as the corresponding blank to correct the fluorescence intensities. The fluorescence quenching mechanism between mTyr and 6′-O-caffeoylarbutin was described using the Stern-Volmer Equation (2). (2) F0/F=1+KSVQ=1+Kqτ0[Q] where KSV is the Stern-Volmer quenching constant, [Q] represents the concentration of 6′-O-caffeoylarbutin, Kq is bimolecular quenching rate constant, and τ0 denotes the average lifetime of the fluorescence molecules in the absence of 6′-O-caffeoylarbutin (value is 10^−8 s).

[3] = tested on: human immortalized keratinocyte (HaCaT) non-tumor cells; test: CCK-8 cell proliferation and cytotoxicity assay, HaCaT; format: cell-based
Procedure: I. Cell lines and cell culture. Human melanoma A375 tumor cells and human immortalized keratinocyte (HaCaT) non-tumor cells were obtained from Nanjing Pusheng Biomedical Technology Co., Ltd. (Nanjing, China). The cells (A375/HaCaT) were cultured in Dulbecco’s modified Eagle’s medium (DMEM, Gibco, New York, NY, USA) supplemented with 10% (v/v) fetal bovine serum (FBS, Gibco, New York, NY, USA), and incubated at 37 °C with 5% CO2 in a humidified incubator.
II. Cell viability assay. Cell proliferation and cytotoxicity assays were conducted using the Cell counting kit-8 (CCK-8) on A375 and HaCaT cells. Briefly, the cells were initially seeded in 96-well plates at a density of 4 × 10^4 cells per well and incubated for 24 h at 37 °C with 5% CO2 in a humidified incubator. Each treatment was performed in six duplicate wells. The tested compounds were added at various concentrations, and the cells were then incubated for 72 h. Following the incubation period, CCK-8 solution (Dojindo Laboratories, Kumamoto, Japan) was added to each well, and the plates were further incubated for 2 h. The absorbance of each well at 450 nm was measured using an absorbance microplate reader (BioTek ELx800, Winooski, VT, USA). The assay included negative controls in which cells were treated with ultrapure water and positive controls in which cells were treated with 10 µg·mL^−1 taxol. The percentage of cell growth inhibition was calculated using the following Equation (3). (3) Cell growth inhibition rate [%]=B1−B2/B1−B3×100 where B1 represents the absorbance of a mixture containing cells, medium, and CCK-8 solution, B2 represents the absorbance of a mixture containing cells, medium, CCK-8 solution, and the test compound; and B3 represents a mixture containing medium and CCK-8 solution.

[4] = target: T1, Mushroom tyrosinase (mTyr); conditions: substrate L-tyrosine; previous experiments; Liu et al., 2023; read-out: IC50, monophenolase activity of mTyr; cited from earlier work
zebrafish = tested on: zebrafish; parameters: method as in PMID 24498931; conditions: live zebrafish model; cited from earlier work

T1 sequence (C7FF04 1-392): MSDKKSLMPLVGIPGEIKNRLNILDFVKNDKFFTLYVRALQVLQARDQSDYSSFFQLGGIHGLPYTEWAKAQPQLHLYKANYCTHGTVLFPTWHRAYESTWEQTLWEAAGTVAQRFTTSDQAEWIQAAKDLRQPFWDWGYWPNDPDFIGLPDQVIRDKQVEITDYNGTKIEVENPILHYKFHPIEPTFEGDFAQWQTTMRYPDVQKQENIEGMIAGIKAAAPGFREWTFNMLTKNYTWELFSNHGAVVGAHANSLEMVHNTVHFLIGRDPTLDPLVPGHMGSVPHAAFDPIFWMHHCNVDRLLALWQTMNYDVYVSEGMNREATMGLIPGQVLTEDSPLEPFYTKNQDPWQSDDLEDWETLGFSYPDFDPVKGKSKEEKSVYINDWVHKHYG

Which results are given for `O=C(C=Cc1ccc(O)c(O)c1)OCC1OC(Oc2ccc(O)cc2)C(O)C(O)C1O` (stereo not drawn) [6′-O-caffeoylarbutin]?
inhibition type on mTyr ([1]; Lineweaver-Burk, substrate L-DOPA): competitive inhibition; Ki ([1]; binding to free enzyme, substrate L-DOPA, read-out: inhibition constant (Ki) on mTyr): 1340 ± 920 nM; reversibility of mTyr inhibition ([1]; rate vs enzyme concentration, 10-100 μM inhibitor, L-DOPA 0.5 mmol·L^−1): reversible; reduction of the peak of the fluorescence emission spectrum of mTyr ([2]; 25 μM): 37.18%; decrease in the fluorescence emission spectrum of mTyr ([2]; 100 μM): 12.57%; quenching rate constant Kq ([2]; Stern-Volmer, 37 °C): 4.11e+12 L·mol/s; apparent binding constant Ka ([2]; double-logarithmic regression): 108000 L/mol; number of binding sites n ([2]; double-logarithmic regression): 0.79 ± 0.06; inhibition rate ([3]; 3.125–100 μg∙mL^−1, 72 h): below 3%; inhibition at 200 µg/mL ([3]; Homo sapiens, 200 μg∙mL^−1, 72 h, read-out: inhibition rate): 3.6%; inhibition at 400 µg/mL ([3]; Homo sapiens, 400 μg∙mL^−1, 72 h, read-out: inhibition rate): 14.5%; IC50 ([3]; Homo sapiens, 72 h, CCK-8): > 400 µg/mL; IC50 [4]: 1110 nM and 1100 nM; inhibitory effect on melanin production relative to beta-arbutin (zebrafish): approximately two-fold higher; also recorded: approximately twice as potent as that of beta-arbutin; toxicity level relative to beta-arbutin (zebrafish): around half that of beta-arbutin
